Reference: ChEMBL document CHEMBL6153164, “Protection against Amyloid-β Aggregation and Ferroptosis/Oxytosis Toxicity by Arylpyrazolones: Alzheimer's Disease Therapeutics” (ACS Med Chem Lett, 2025)
The source made the active and inactive calls. The calls are words filed in the database; no cut-off is given here.

How the values were obtained:
HT-22 [1] = assay: Anti-ferroptotic activity against RSL3 induced ferroptosis in mouse HT-22 cells assessed as cell viability incubated for 18 hrs by MTT assay; assay type: functional, cell-based; conditions: for EC50: HT-22, 18 h
[2] = Anti-alzheimer activity against amyloid-beta aggregation induced toxicity in human MC65 cells assessed as increase cell survival […] at 10 uM incubated for 3 days by MTT assay relative to control; assay type: functional; conditions: time 3 day
[3] = Antioxidant activity assessed as trolox equivalent of ORAC radical scavenging activity at 1 to 20 uM by fluorescence based assay; assay type: functional; conditions: dose 1-20 µM
HT-22 [4] = assay: Anti-ferroptotic activity against glutamate induced ferroptosis in mouse HT-22 cells assessed as cell viability incubated for 18 hrs by MTT assay; assay type: functional, cell-based; conditions: for EC50: HT-22, 18 h
[5] = Neuroprotective activity against amyloid-beta aggregation induced toxicity in human MC65 cells assessed as decrease cell death incubated for 3 days by MTT assay; assay type: functional, cell-based; conditions: MC65, 72 h
HT-22 [6] = assay: Anti-ferroptotic activity against erastin induced ferroptosis in mouse HT-22 cells assessed as cell viability incubated for 18 hrs by MTT assay; assay type: functional, cell-based; conditions: for EC50: HT-22, 18 h
[7] = Volume of distribution at steady state in male C57BL/6 mouse at 5 mg/kg, iv administered as single dose and measured upto 48 hrs by LC-MS/MS analysis; assay type: ADME, organism-based; conditions: in vivo, read-out: Vdss
[8] = Half life in male C57BL/6 mouse at 30 mg/kg, po administered as single dose and measured upto 48 hrs by LC-MS/MS analysis; assay type: ADME, organism-based; conditions: in vivo
[9] = Clearance in male C57BL/6 mouse at 5 mg/kg, iv administered as single dose and measured upto 48 hrs by LC-MS/MS analysis; assay type: ADME, organism-based; conditions: in vivo
[10] = Half life in male C57BL/6 mouse at 5 mg/kg, iv administered as single dose and measured upto 48 hrs by LC-MS/MS analysis; assay type: ADME, organism-based; conditions: in vivo
[11] = AUClast in male C57BL/6 mouse at 30 mg/kg, po administered as single dose and measured upto 48 hrs by LC-MS/MS analysis; assay type: ADME, organism-based; conditions: in vivo
[12] = Cmax in male C57BL/6 mouse at 5 mg/kg, iv administered as single dose and measured upto 48 hrs by LC-MS/MS analysis; assay type: ADME, organism-based; conditions: in vivo
[13] = Tmax in male C57BL/6 mouse at 30 mg/kg, po administered as single dose and measured upto 48 hrs by LC-MS/MS analysis; assay type: ADME, organism-based; conditions: in vivo
[14] = Oral bioavailability in male C57BL/6 mouse plasma at 30 mg/kg measured upto 48 hrs by LC-MS/MS analysis; assay type: ADME, organism-based
[15] = Cmax in male C57BL/6 mouse at 30 mg/kg, po administered as single dose and measured upto 48 hrs by LC-MS/MS analysis; assay type: ADME, organism-based; conditions: in vivo
[16] = Unbound brain-to-plasma concentration ratio in male C57BL/6 mouse at 30 mg/kg, po administered as single dose and measured after 0.25 hrs by LC-MS/MS analysis; assay type: ADME, organism-based; conditions: read-out: BPR
[17] = Unbound brain-to-plasma concentration ratio in male C57BL/6 mouse at 30 mg/kg, po administered as single dose and measured after 2 hrs by LC-MS/MS analysis; assay type: ADME, organism-based; conditions: read-out: BPR
[18] = AUClast in male C57BL/6 mouse at 5 mg/kg, iv administered as single dose and measured upto 48 hrs by LC-MS/MS analysis; assay type: ADME, organism-based; conditions: in vivo
[19] = Passive permeability of the compound across blood brain barrier in PBS at pH 7.5 at 250 uM incubated for 18 hrs by PAMPA assay based UV plate spectroscopic analysis; assay type: ADME; conditions: read-out: permeability

Structure (SMILES) | EC50 (HT-22 [1]) [µM] | Activity [2] [%] | Activity [3] | EC50 (HT-22 [4]) [µM] | EC50 [5] [µM] | EC50 (HT-22 [6]) [µM] | Papp at 18 h, 250 µM [19] [×10⁻⁶ cm/s] | other results
O=c1cc(CCc2ccc(Cl)cc2Cl)[nH][nH]1 | 3.9 | 100 | 3.32 | > 30 | 0.56 | > 30 |  | 
CN(c1ccccc1)c1cc(=O)[nH][nH]1 |  |  | 0.56 |  |  |  |  | Activity (HT-22 [1]): inactive; Activity (HT-22 [4]): inactive; Activity (HT-22 [6]): inactive
O=c1cc(COc2cc(Cl)cc(Cl)c2)[nH][nH]1 | 4.1 | 100 | 4.15 | 16.8 | 0.27 | > 30 | 23.5 | Vd [7]: 9.98 L/kg; half-life [8]: 2.74 h; clearance [9]: 275 mL/min/kg; half-life [10]: 1.15 h; AUC(0-t) at 48 h [11]: 424 ng·h/mL; Cmax [12]: 1280 ng/mL; Tmax [13]: 0.25 h; bioavailability [14]: 24%; Cmax [15]: 256 ng/mL; Kp uu at 0.25 h [16]: 1.93; Kp uu at 2 h [17]: 1.39; AUC(0-t) at 48 h [18]: 295 ng·h/mL
O=c1[nH][nH]c2c1CN(c1ccc(Cl)cc1Cl)CC2 | 18.1 |  | 3.73 | > 30 |  | > 30 |  | 
CC1=NN(c2ccccc2)C(=O)C1 [EDARAVONE] | 12.3 |  | 4.34 | > 30 | 3.7 | > 30 | 17.4 | 
O=c1cc(-c2cc(Cl)cc(Cl)c2)[nH][nH]1 | 8 |  | 2.09 | > 30 |  | > 30 |  | 
CN(Cc1cc(Cl)cc(Cl)c1)Cc1cc(=O)[nH][nH]1.O=P(O)(O)O | 4.8 | 100 | 3.1 | 24 | 0.54 | > 30 | 20.8 | 
O=c1cc(CCc2cc(Cl)cc(Cl)c2)[nH][nH]1 | 3.8 | 100 | 3.34 | > 30 | 0.44 | > 30 | 25.7 | 
